This passage reports EC50 and Emax results from ChEMBL document CHEMBL4739717, “Methods of treating cartilage disorders through inhibition of clk and dyrk” (2020).

Broadly, the pEC50 is the EC50 on a negative log10 scale, so that one unit is a factor of ten. As usually defined, the Emax is the size of the effect at its maximum, as opposed to the concentration needed.

Experiment [1] deals with Dual specificity protein kinase CLK3 (Homo sapiens, UniProt P49761). Nature of the experiment: Inhibition of recombinant CLK3 (unknown origin) using Ser/Thr 18 peptide as substrate incubated for 1 hr in presence of ATP by FRET assay.
Experiment [2] in a line: Effect on Wnt signaling pathway in human SW480 cells harbouring TCF/LEF luciferase reporter gene and SP5-Luc reporter gene incubated for 36 to 48 hrs by luminescence assay. The format is cell-based. A general note: Reporter assays use an easily measured gene product as a stand-in for the process of interest.
Experiment [3] addresses Dual specificity tyrosine-phosphorylation-regulated kinase 1A (Homo sapiens, UniProt Q13627). Nature of the experiment: Inhibition of recombinant DYRK1A (unknown origin) using Ser/Thr 18 peptide as substrate incubated for 1 hr in presence of ATP by FRET assay.
Experiment [4] in a line: Induction of chondrogenesis in human MSC assessed as maximum activity at 100 nM incubated for 6 days by rhodamine B and Nile red staining based imaging analysis relative to control. The format is functional. Conditions: BMMSC, 144 h, time 6 day.
Experiment [5] can be described thus: Induction of chondrogenesis in human MSC assessed as incubated for 6 days by rhodamine B and Nile red staining based imaging analysis. It counts as functional. Conditions: bmmsc.
A short description of experiment [6]: Inhibition of IL1-beta induced MMP3 expression levels in human chondrocytes assessed as MMP3 levels incubated for 2hrs followed by IL1-beta stimulation and measured after overnight incubation by LANCE assay. It counts as functional, cell-based. Conditions: Chondrocyte.
Experiment [7] in a line: Induction of chondrogenesis in human MSC assessed as maximum activity at 30 nM incubated for 6 days by rhodamine B and Nile red staining based imaging analysis relative to control. The format is functional. Conditions: BMMSC, 144 h, time 6 day.
A short description of experiment [8]: Induction of chondrogenesis in human MSC assessed as maximum activity at 300 nM incubated for 6 days by rhodamine B and Nile red staining based imaging analysis relative to control. To be noted: BMMSC, 144 h, time 6 day. The format is functional.
A short description of experiment [9]: Induction of chondrogenesis in human MSC assessed as maximum activity at 10 nM incubated for 6 days by rhodamine B and Nile red staining based imaging analysis relative to control. The format is functional. Conditions: BMMSC, 144 h, time 6 day.

pEC50: −log10 of the molar value.

Chain of Dual specificity protein kinase CLK3 (P49761 whole entry): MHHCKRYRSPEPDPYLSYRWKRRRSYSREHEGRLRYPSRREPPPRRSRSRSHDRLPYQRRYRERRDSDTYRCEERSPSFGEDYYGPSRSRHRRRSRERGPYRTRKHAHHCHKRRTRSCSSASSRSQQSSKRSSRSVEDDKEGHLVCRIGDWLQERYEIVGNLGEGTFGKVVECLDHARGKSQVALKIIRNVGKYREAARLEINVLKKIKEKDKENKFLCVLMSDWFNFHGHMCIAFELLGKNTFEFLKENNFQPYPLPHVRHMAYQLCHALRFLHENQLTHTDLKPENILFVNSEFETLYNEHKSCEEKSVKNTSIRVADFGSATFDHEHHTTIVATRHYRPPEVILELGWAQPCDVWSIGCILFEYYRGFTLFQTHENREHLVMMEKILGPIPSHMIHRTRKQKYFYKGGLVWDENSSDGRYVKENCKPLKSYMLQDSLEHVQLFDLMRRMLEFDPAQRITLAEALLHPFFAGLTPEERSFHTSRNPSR

Take `CCCC(=O)Nc1cncc(-c2ccc3[nH]nc(-c4cc5c(-c6ccncc6)cncc5[nH]4)c3c2)c1`: the pEC50 in experiment [1] was 6.34; in experiment [2] it was under 5.00; in experiment [3] it was 8.22; in [5] it was 7.00. Besides, the Emax at 0.1 µM in experiment [4] came to 124%.
On to `Cc1n[nH]c2cc(F)c(-c3cncc(CN4CCCCC4)n3)cc12`, for which the pEC50 was 5.52 in experiment [6], 5.47 in experiment [1], 5.61 in experiment [2] and 7.22 in [3].
Take `O=C(Nc1ccc(OCCN2CCCC2)nc1)c1n[nH]cc1C#Cc1cccnc1`: in experiment [7], the maximal effect (Emax) at 0.03 µM was found to be 68.8%. In addition, the figures for the negative-log EC50 (pEC50) in experiment [1], in experiment [2] and in experiment [3] were under 5.00, 6.39 and 7.62, respectively.
For the compound `CN1CC2CCC(C1)N2C(=O)Nc1cc2cc(-c3cnn(C)c3)ccc2cn1`, the pEC50 in experiment [1] and in experiment [2] was under 5.00 throughout.
For `CN(C)CCOc1cncc(-c2cc3c(-c4cc5c(-c6ccc(F)cc6)nccc5[nH]4)n[nH]c3cn2)c1`, in [8], the maximum response (Emax) at 0.3 µM was found to be 113%. Also, the pEC50 in experiment [1] was under 5.00; in experiment [2], 5.52; in experiment [3], 7.37; in experiment [5] it was 6.05.
As for `CN(C)CCNc1cc(F)cc(-c2cccc3[nH]c(-c4n[nH]c5ncc(-c6ccncc6)cc45)cc23)c1`, the pEC50 in experiment [6] is 8.40; in experiment [1], under 5.00; in [2], 5.22; in experiment [3], under 5.00.
Take `O=C(Cc1ccccc1)Nc1cncc(-c2ccc3[nH]nc(-c4cc5cnccc5[nH]4)c3c2)c1`: the negative logarithm of the EC50 (pEC50) in [1] was 6.74; in experiment [2], 5.76; in experiment [3], 8.10; in experiment [5], 8.00. Besides, the Emax at 0.01 µM in experiment [9] turned out to be 119%.
Regarding `COc1cncc(C#Cc2c[nH]nc2C(=O)Nc2ccc(N3CCNCC3)nc2)c1`, the negative-log EC50 (pEC50) in experiment [1] is under 5.00; in [2], under 5.00; in [3] it was 7.96. Also, the maximum response (Emax) at 0.01 µM in experiment [9] turned out to be 74.7%.
`Nc1cncc(-c2cnc3[nH]nc(-c4cc5c(-c6ccncc6)ccnc5[nH]4)c3c2)c1`: the pEC50 is under 5.00 in experiment [1], under 5.00 in experiment [2] and 7.72 in experiment [3].
For the compound `CC(C)N1CCC(c2nc(C(=O)Nc3cc4cc(-c5cnn(C)c5)ccc4cn3)co2)CC1`, the values for the pEC50 in [6], in experiment [1] and in [2] were 7.24, 7.70 and 7.10, respectively.
Turning to `CN(C)c1cncc(-c2cnc3[nH]nc(-c4cc5c(-c6ccncc6)cncc5[nH]4)c3c2)c1`, in experiment [7], the maximal effect (Emax) at 0.03 µM worked out at 191%. The pEC50 in experiment [1] was under 5.00; in experiment [2] it was under 5.00; in experiment [3], 7.85; in experiment [5] it was 8.00.
Regarding `FC1(F)CCN(Cc2cncc(-c3ccc4[nH]nc(-c5cc6cccnc6[nH]5)c4n3)c2)C1`, in experiment [7], the Emax at 0.03 µM was determined as 134%. In addition, the negative logarithm of the EC50 (pEC50) in experiment [1] was 6.43; in experiment [2] it was 6.98; in experiment [3] it was 7.96; in experiment [5], 7.00.
Turning to `CN1CCN(c2ccnc3[nH]c(-c4n[nH]c5ccc(-c6cncc(NC(=O)c7ccccc7)c6)nc45)cc23)CC1`, the pEC50 in experiment [1] is 6.59; in experiment [2] it was 5.22; in [3], 7.54; in experiment [5], 8.00. Besides, in [9], the maximum response (Emax) at 0.01 µM came out at 61.8%.
On to `c1cc(-c2ccnc3[nH]c(-c4n[nH]c5ccc(-c6cncc(OCCN7CCCC7)c6)nc45)cc23)ccn1`, for which, in [8], the Emax at 0.3 µM was 39.6%. Moreover, the figures for the pEC50 in experiment [1], in experiment [2] and in experiment [3] were under 5.00, under 5.00 and 7.55, respectively.
`O=C(Nc1cccnc1)Nc1c[nH]nc1C(=O)Nc1ccc(C(F)(F)F)nc1`: the pEC50 is 8.06 in experiment [6], under 5.00 in [1], 6.17 in experiment [2] and 7.66 in [3].
Consider `CC(F)(F)CN1CCC(C(=O)Nc2cc3cc(-c4cnco4)cnc3cn2)CC1`, for which the negative logarithm of the EC50 (pEC50) was 5.52 in experiment [6], under 5.00 in experiment [1] and under 5.00 in experiment [2].
As for `COc1cccc(-c2cncc3[nH]c(-c4n[nH]c5ccc(-c6cn[nH]c6)nc45)nc23)c1`, the negative logarithm of the EC50 (pEC50) in [1], in experiment [2] and in experiment [3] was under 5.00 each time.
For `Nc1cncc(-c2cc3c(-c4cc5c(-c6ccncc6)cncc5[nH]4)n[nH]c3cn2)c1`, in experiment [7], the Emax at 0.03 µM amounted to 52%. Besides, the pEC50 in experiment [1] is under 5.00; in experiment [2], under 5.00; in experiment [3] it was 8.52; in experiment [5] it was 8.00.
On to `COc1cccc(-c2cncc3[nH]c(-c4n[nH]c5ccc(-c6cncc(NC(=O)C7CCCCC7)c6)nc45)nc23)c1`, for which the negative logarithm of the EC50 (pEC50) in experiment [6] was 5.52; in [1] it was under 5.00; in experiment [2], under 5.00; in experiment [3] it was under 5.00.
As for `Nc1cncc(-c2cc3c(-c4cc5c(-c6ccccc6F)ccnc5[nH]4)n[nH]c3cn2)c1`, the pEC50 was under 5.00 in experiment [1], under 5.00 in experiment [2] and 7.38 in experiment [3]. For the same compound, the Emax at 0.01 µM in [9] was found to be 32.4%.
In the case of `O=C(Nc1cccnc1)c1n[nH]cc1C#Cc1cncc(OC2CCNCC2)c1`, the negative logarithm of the EC50 (pEC50) in experiment [6] is 9.70; in experiment [1] it was under 5.00; in experiment [2] it was 5.90; in [3], 7.62.
As for `CN(C)CCOc1cc(C(=O)Nc2cc3cc(-c4cnn(C)c4)ccc3cn2)ccn1`, the pEC50 in experiment [6] is 6.00; in experiment [1] it was 7.52.
In the case of `O=C(Nc1c[nH]nc1C(=O)Nc1ccc(N2CCC(F)(F)C2)nc1)c1cncc(OC2CCNCC2)c1`, the maximal response (Emax) at 0.3 µM in experiment [8] was 75.2%. Further, the negative logarithm of the EC50 (pEC50) was 6.55 in [6], 5.65 in experiment [2] and 8.00 in experiment [3].
On to `O=C(Nc1cc2cc(-c3cncs3)ccc2cn1)C1(F)CCCCC1`, for which the pEC50 in experiment [6] was 5.52; in experiment [1], under 5.00; in [2] it was under 5.00; in [3], 8.10.
Take `COc1cncc(-c2ccc3[nH]nc(-c4nc5c(N6CCCCC6)ccnc5[nH]4)c3n2)c1`: the pEC50 was 6.91 in experiment [6], under 5.00 in experiment [1], under 5.00 in experiment [2] and under 5.00 in [3].
On to `O=C(Nc1c[nH]nc1C(=O)Nc1cncc(-c2cccc(F)c2)c1)c1cncc(F)c1`, for which the negative logarithm of the EC50 (pEC50) is 9.40 in experiment [6], under 5.00 in [1], 6.32 in experiment [2] and 7.20 in experiment [3]. The Emax at 0.1 µM in [4] came out at 81.5%.
Turning to `O=C(Nc1cc2cc(-c3cnco3)cnc2cn1)[C@H]1CC[C@H](CO)CC1`, the pEC50 in [1] and in experiment [2] was under 5.00 throughout.
For the compound `O=C(Cc1ccccc1)Nc1cncc(-c2ccc3[nH]nc(-c4nc5c(-c6ccncc6)ccnc5[nH]4)c3n2)c1`, the pEC50 in experiment [1], in experiment [2] and in experiment [3] was under 5.00 throughout.
Take `O=C(Nc1cncc(-c2cnc3[nH]nc(-c4cc5cccnc5[nH]4)c3c2)c1)c1ccccc1`: the negative-log EC50 (pEC50) in experiment [1] is under 5.00; in [2] it was under 5.00; in experiment [3], 7.85. Moreover, the Emax at 0.01 µM in [9] is 21.8%.
`CC(C)Nc1cncc(-c2cnc3[nH]nc(-c4cc5c(-c6ccccc6F)ccnc5[nH]4)c3c2)c1`: the pEC50 was under 5.00 in [1], under 5.00 in experiment [2], 7.46 in experiment [3] and 8.00 in experiment [5]. The Emax at 0.01 µM in [9] came out at 81.6%.
For the compound `Fc1ccc(-c2cccc3[nH]c(-c4n[nH]c5ncc(-c6cncc(CN7CCCCC7)c6)cc45)cc23)cc1`, the negative-log EC50 (pEC50) is 7.34 in [6], under 5.00 in experiment [1], 5.44 in experiment [2] and under 5.00 in experiment [3].
Regarding `c1cc(-c2cncc3[nH]c(-c4n[nH]c5ccc(-c6cncc(CNCC7CCCC7)c6)cc45)nc23)cs1`, the pEC50 in [1] was under 5.00; in [2] it was 7.24; in experiment [3], 7.92; in [5], 7.00. Also, in experiment [4], the maximal response (Emax) at 0.1 µM was 167%.
For `c1cc(-c2ccnc3[nH]c(-c4n[nH]c5ccc(-c6cncc(CNCC7CCCC7)c6)nc45)cc23)ccn1` the same measures were under 5.00, under 5.00, 7.40, 7.00 and 67.2%.
On to `Fc1ccc(-c2cncc3[nH]c(-c4n[nH]c5cnc(-c6cncc(CN7CCC(F)(F)C7)c6)cc45)cc23)cc1`, for which the Emax at 0.3 µM in experiment [8] came to 78.4%. Also, the pEC50 in experiment [2] was 5.49; in experiment [3] it was 7.52; in experiment [5] it was 7.00.
Turning to `O=C(Nc1cncc(-c2cc3c(-c4cc5c(-c6cccc(F)c6)ccnc5[nH]4)n[nH]c3cn2)c1)C1CC1`, the pEC50 in [6] is 6.53; in experiment [1], under 5.00; in experiment [2] it was 8.01; in experiment [3] it was under 5.00.
Consider `Fc1ccc(-c2cccc3[nH]c(-c4n[nH]c5ccc(-c6cncnc6)nc45)nc23)cc1`, for which the negative-log EC50 (pEC50) in experiment [6] is 5.52; in experiment [1], under 5.00; in experiment [2], under 5.00; in [3], under 5.00.
In the case of `c1cc(-c2ccnc3[nH]c(-c4n[nH]c5ccc(-c6cncnc6)cc45)cc23)ccn1`, the pEC50 is under 5.00 in experiment [1], under 5.00 in [2] and 7.17 in [3]. In addition, in experiment [4], the Emax at 0.1 µM is 17.3%.
On to `Fc1cccc(-c2cncc3[nH]c(-c4n[nH]c5ccc(-c6cnccn6)nc45)nc23)c1`, for which the negative logarithm of the EC50 (pEC50) is 5.52 in experiment [6], under 5.00 in experiment [1], under 5.00 in [2] and under 5.00 in [3].
